Assay results taken from patent US20100285990A1, “NEURITE OUTGROWTH AS AN ASSAY FOR MEMORY ENHANCING COMPOUNDS” (priority 2007, published 2010).

Legend:
[1] = tested on: mouse hippocampal neurons; assay: Neurite outgrowth assay in mouse hippocampal neurons; format: cell-based
Description: Mouse hippocampal neurons were cultured for three days and then treated with HT-2175 or Rolipram for 24 hours. […] MEAN+/−SEM of eight experimental replicate wells (each measuring neurite length of at least 100 neurons) is shown. […] Mice were treated with HT-2175 or vehicle and then trained in contextual conditioning.
Cryo-preserved NS 1 neurons were purchased from the University of Ottawa. Neurons were cultured on poly-D-lysine coated 96 well plates in serum free Neurobasal medium supplemented with 2% B27, 500 μM L-glutamine, and 1 mM pyruvate. Plating density was 20,000 neurons per well. For neurite outgrowth assays, neurons were cultured for 2-3 days and then treated for 24 hours with Rolipram, HT-2175, or HT-2157, respectively.

mice = assay: Contextual fear conditioning (freezing behavior) for long term memory; format: in vivo, mouse
Description: Young-adult (10-12 weeks old) C57BL16 male mice (Taconic, N.Y.) were used for biochemistry and behavioral experiments. Upon arrival, mice were group-housed (5 mice) in standard laboratory cages and maintained on a 12:12 hours light-dark cycle. The experiments were always conducted during the light phase of the cycle. The day before the initiation of the experiment, mice were single housed in individual cages and maintained so till the end of the experiment. With the exception of training and testing times, the mice had ad lib access to food and water.
To assess contextual memory, a standardized contextual fear conditioning task (Bourtchuladze, et al., Cell 79(1):59-68 (1994)) was used. On the training day, the mouse was placed into the conditioning chamber (Med Associates, Inc., VA) for 2 minutes before the onset of the unconditioned stimulus (US), a 0.5 mA foot shock of 2 seconds duration. The US was repeated with a 1 minute inter-trial interval between shocks. After the last training trial, the mice were left in the conditioning chamber for another 30 sec and were then placed back in their home cage. Memory retention was tested one or four days after training. Results were identical for both time points. The mouse was placed into the same training chamber and conditioning was assessed by scoring freezing behavior, as defined by the complete lack of movement. Total testing time lasted 3 minutes. The proceeding of each experiment was filmed. After each experimental subject, the experimental apparatus was thoroughly cleaned with 75% ethanol, water, dried, and ventilated.
Mice were trained with one, two, five or ten trials of contextual conditioning. Four days later contextual memory was tested by scoring freezing behavior. […] Next, mice received weak training (two trials) to induce submaximal memory, or strong training (five trials) to induce maximum memory. Directly after training, the CREB enhancer Rolipram or vehicle was injected into the hippocampus. Contextual memory was tested by scoring freezing behavior four days after training.
For intrahippocampal Rolipram injection or Gpr12 siRNA treatment, mice were anesthetized with 20 mg/kg Avertin and implanted with a 33-gauge guide cannula bilateraly into the dorsal hippocampus (coordinates: A=−1.8 mm, L=+/−1.5 mm to a depth of 1.2 mm) (Franklin and Paxinos, 1997). Five to nine days after recovery from surgery, animals were injected with drug or vehicle control. […]
To assess contextual memory, a standardized contextual fear conditioning task (Bourtchuladze, et al, Cell 79(1):59-68 (1994)) was used. […] The mouse was placed into the same training chamber and conditioning was assessed by scoring freezing behavior, as defined by the complete lack of movement. […]

NS1 cells = assay: Neurite outgrowth assay in Neuroscreen 1 (NS1) cells; format: cell-based; settings: for number of branch points: FIG. 5B
Description: The effect of CREB enhancers on neurite outgrowth in NS1 cells was assayed. On-target siRNAs (Dharmacon Inc., Lafayette, USA) were used for in vitro testing (neurite outgrowth in NS 1 cells). Neuroscreen 1 (NS1) cells (Cellomics Inc.) were transfected according to the manufactures specification using Dharmafect 3.
Neuroscreen 1 (NS1) cells were cultured on collagen type I coated 75 cm^2 plastic flasks (Biocoat, Becton Dickinson) in a humidified incubator at 37° C. in 5% CO2. Cells were cultured in RPMI complete cell culture medium (Cambrex) supplemented with 10% heat-inactivated horse serum (Invitrogen), 5% heat-inactivated fetal bovine serum (Cellgro), and 2 mM L-glutamine (Cambrex). For expansion, the cells were trypsinized and split at 80% confluence. The cell culture media was changed every 2 to 3 days.
NS1 cells were harvested as if they were being passaged and then counted using a Coulter counter (Becton Dickinson Coulter Z1). Cells were seeded in 96-well collagen I coated plates at a density of 2000 cells per well in volume of 200 μl. RPMI media was supplemented with 200 ng/ml nerve growth factor (NGFβ, Sigma). NS 1 cells were incubated for 72 hours to allow differentiation to a neuronal phenotype. NGFβ was then diluted to 50 ng/ml and the cells were treated with siRNA or compound at the indicated doses, respectively.
Neurite outgrowth assays were performed using the Cellomics Arrayscan II Vti HCS scanner. Cells were stained using the HitKit™ HCS reagent kit (Cellomics) according to the manufactures specifications. The assay is based on immunoflourescence using an antibody that has been validated to specifically label both neurites and neuronal cell bodies. Briefly, cells were fixed in 3.7% formaldehyde and nuclei stained with Hoechst dye. Cells were then washed in neurite outgrowth buffer and neurites stained with Cellomics' proprietary primary antibody for neurite outgrowth high content screening. After 1 hour of incubation with the primary antibody, the cells were washed again and then incubated with fluorescently labeled secondary antibody solution for 1 hour. Antibody-stained 96-well plates were store at 4° C. in the dark until scanning. Plates were scanned using Cellomics ArrayScan II Vti HCS scanner. The neurite outgrowth assay uses two channels to carry out the scan. Channel 1 detects the Hoechst Dye and is used by the software to identify cells and for automated focusing. Channel 2 detects the FITC fluorescence of the secondary antibody and is used by the software to calculate all data generated in reference to neurites.

CREB pathway = assay: CRE-luciferase reporter assay of CREB activation in Neuro2A cells; format: cell-based; settings: p<0.001
Excerpt: CREB activity assays were constructed. Neuro2A cells were transfected with a CREB expressing or control vectors using standard molecular biology techniques. CRE-luciferase activity was monitored in the presence or absence of Forskolin ([…]). CREB over-expression led to an increase in the activation of the CRE-reporter construct (n=3 per group, * indicates p<0.05). CRE-luciferase reporter thus measures activation of the CREB pathway. In FIG. 1B, the effect of Rolipram on CREB-activation is shown. Neuro2A cells were treated with the PDE4 inhibitor Rolipram and CREB activation monitored via CRE-liciferase activation.
The effect of Rolipram on CREB-activation was assayed in the presence of 0.5 μM Forskolin. Neuro2A cells were treated with the PDE4 inhibitor Rolipram and CREB activation monitored via CRE-liciferase activation in the presence of 0.5 μM Forskolin.

[2] = siRNA treatment 48 hours, compared to vehicle alone

O=C1C(=Nc2cccc(C(F)(F)F)c2)c2ccccc2N1c1ccccc1 [HT-2157]
number of branch points ([1]; mouse hippocampal neurons, FIG. 6C): dose-dependently facilitates neurite outgrowth | contextual memory (mice; contextual fear conditioning with two trials, FIG. 6D): dose dependently facilitates contextual memory | total neurite length per cell (NS1 cells; FIG. 6A): facilitates neurite outgrowth | number of branch points per dendrite (NS1 cells; FIG. 6B): facilitates neurite outgrowth

COc1ccc(C2CNC(=O)C2)cc1OC1CCCC1 (centres unmarked) [Rolipram]
branch points per neurite ([1]; neurons cultured three days, treated 24 hours, FIG. 4A): facilitate neurite outgrowth | contextual memory (freezing behavior) (mice; strong training (five trials), injected into the hippocampus directly after training, tested four days after training): has no effect on maximal memory | contextual memory (freezing behavior) (mice; weak training (two trials), injected into the hippocampus directly after training, tested four days after training): dose-dependently facilitates submaximal contextual memory | CREB activation monitored via CRE-luciferase activation (CREB pathway; FIG. 1B, n=8 per group): activates CREB-dependent transcription | CREB activation monitored via CRE-luciferase activation (CREB pathway; in the presence of 0.5 μM Forskolin): activates CREB-dependent transcription | neurite branch points (NS1 cells; increasing doses in the presence of 5 μM Forskolin): dose dependently increase neurite outgrowth | neurite length (NS1 cells; increasing doses in the presence of 5 μM Forskolin, FIG. 3B): dose dependently increase neurite outgrowth

Gpr12 siRNA: siRNA against Gpr12; sense GAGGCACGCCCAUC AGAUAUU (SEQ ID NO: 1), anti-sense UAUCUGAUGGGCGUGCCUCUU (SEQ ID NO: 2) (sense GAGGCACGCCCAUCAGAUAUU; chemically modified siSTABLE siRNA, pattern not given here)
contextual memory (freezing behavior) (mice; siRNA injected repeatedly into hippocampus, weak training (two trials), tested 24 hours later, FIG. 5C): facilitates contextual memory | number of branch points (NS1 cells; siRNA treatment 48 hours): significantly enhanced neurite outgrowth | neurite length (NS1 cells; [2]): significantly enhanced neurite outgrowth

non-targeting control siRNA: 21mer non-targeting siRNA used as control; SEQ ID NO: 3 and 4 (chain 1 UAGCGACUAAACACAUCAAUU; chain 2 UUGAUGUGUUUAGUCGCUAUU; chemically modified siSTABLE siRNA, pattern not given here)
number of branch points (NS1 cells; siRNA treatment 48 hours): had no effect on branch points | neurite length (NS1 cells; [2]): had no effect on neurite outgrowth | neurite length (NS1 cells; siRNA treatment 48 hours, compared to vehicle alone, listed as Non-targeting control siRNA): had no effect on neurite length
